# From ChEMBL document CHEMBL1201862, “PubChem BioAssay data set” (2004)
#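 Five concentrations, 48 hours, 96-well plates. The concentration for 50% growth inhibition is given as GI50.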 Calls of active or inactive are those of the source. No stated cut-off is given here; in the data, active = GI50 up to about 1.1 µM and inactive = higher.
# What was measured:
# Assay in all cases: NCI tumour cell line growth inhibition, 48 h
# SF-268 = test system: SF-268
# NCI-H23 = test system: NCI-H23
# OVCAR-5 = test system: OVCAR-5
# ACHN = test system: ACHN
# SW-620 = test system: SW-620
# EKVX = test system: EKVX
# M14 = test system: M14
# T47D = test system: T47D
# HCT-15 = test system: HCT-15
# HCC 2998 = test system: HCC 2998
# TK-10 = test system: TK-10
# COLO 205 = test system: COLO 205
# SN12C = test system: SN12C
# A549 = test system: A549
# IGROV-1 = test system: IGROV-1
# OVCAR-4 = test system: OVCAR-4
# UACC-257 = test system: UACC-257
# SK-MEL-2 = test system: SK-MEL-2
# CAKI-1 = test system: CAKI-1
# HL-60 = test system: HL-60
# SK-MEL-28 = test system: SK-MEL-28
# HT-29 = test system: HT-29
# UACC-62 = test system: UACC-62
# SK-MEL-5 = test system: SK-MEL-5
# NCI/ADR-RES = test system: NCI/ADR-RES
# SR = test system: SR
# OVCAR-3 = test system: OVCAR-3
# NCI-H460 = test system: NCI-H460
# PC-3 = test system: PC-3
# K562 = test system: K562
# MCF7 = test system: MCF7
# MOLT-4 = test system: MOLT-4
# OVCAR-8 = test system: OVCAR-8
# KM12 = test system: KM12
# MDA-N = test system: MDA-N
# HOP-62 = test system: HOP-62
# BT-549 = test system: BT-549
# CCRF-CEM = test system: CCRF-CEM
# SNB-19 = test system: SNB-19
# UO-31 = test system: UO-31
# Malme-3M = test system: Malme-3M
# SF-539 = test system: SF-539
# Hs-578T = test system: Hs-578T
# NCI-H522 = test system: NCI-H522
# SNB-75 = test system: SNB-75
# DU-145 = test system: DU-145
# HOP-92 = test system: HOP-92
# MDA-MB-435 = test system: MDA-MB-435
# A498 = test system: A498
# RXF 393 = test system: RXF 393
# SK-OV-3 = test system: SK-OV-3
# RPMI-8226 = test system: RPMI-8226
# LOX IMVI = test system: LOX IMVI
# HCT-116 = test system: HCT-116
# MDA-MB-231 = test system: MDA-MB-231
# U-251 = test system: U-251
# NCI-H226 = test system: NCI-H226
# 786-0 = test system: 786-0
# SF-295 = test system: SF-295
smiles,measurement,setting,value
CCOC(=O)C(SCCO)C(C(=O)OCC)n1cnc2c(N)ncnc21 (stereo not drawn),GI50,SF-268,15.9 µM (inactive)
same,GI50,NCI-H23,14.8 µM (inactive)
same,GI50,OVCAR-5,7.05 µM (inactive)
same,GI50,ACHN,10.5 µM (inactive)
same,GI50,SW-620,3.01 µM (inactive)
same,GI50,EKVX,16.5 µM (inactive)
same,GI50,M14,5.07 µM (inactive)
same,GI50,T47D,11.2 µM (inactive)
same,GI50,HCT-15,6.27 µM
same,GI50,HCC 2998,13.8 µM (inactive)
same,GI50,TK-10,15 µM (inactive)
same,GI50,COLO 205,6.03 µM (inactive)
same,GI50,SN12C,9.98 µM (inactive)
same,GI50,A549,44.3 µM (inactive)
same,GI50,IGROV-1,16.1 µM (inactive)
same,GI50,OVCAR-4,18.7 µM (inactive)
same,GI50,UACC-257,35.1 µM (inactive)
same,GI50,SK-MEL-2,15.8 µM (inactive)
same,GI50,CAKI-1,4.31 µM (inactive)
same,GI50,HL-60,2 µM (inactive)
same,GI50,SK-MEL-28,17.3 µM (inactive)
same,GI50,HT-29,11 µM (inactive)
same,GI50,UACC-62,12.3 µM (inactive)
same,GI50,SK-MEL-5,23.1 µM (inactive)
same,GI50,NCI/ADR-RES,19.8 µM (inactive)
same,GI50,SR,4.63 µM (inactive)
same,GI50,OVCAR-3,12.7 µM (inactive)
same,GI50,NCI-H460,12.4 µM (inactive)
same,GI50,PC-3,6.05 µM (inactive)
same,GI50,K562,3.66 µM (inactive)
same,GI50,MCF7,5.55 µM (inactive)
same,GI50,MOLT-4,4.78 µM (inactive)
same,GI50,OVCAR-8,13.9 µM (inactive)
same,GI50,KM12,17.1 µM (inactive)
same,GI50,MDA-N,15.8 µM (inactive)
same,GI50,HOP-62,21.7 µM (inactive)
same,GI50,BT-549,15.3 µM (inactive)
same,GI50,CCRF-CEM,1.96 µM (inactive)
same,GI50,SNB-19,28.5 µM (inactive)
same,GI50,UO-31,20.7 µM (inactive)
same,GI50,Malme-3M,9.91 µM (inactive)
same,GI50,SF-539,16.3 µM (inactive)
same,GI50,Hs-578T,17.3 µM (inactive)
same,GI50,NCI-H522,3.46 µM (inactive)
same,GI50,SNB-75,12.1 µM (inactive)
same,GI50,DU-145,> 67.3 µM (inactive)
same,GI50,HOP-92,2.47 µM (inactive)
same,GI50,MDA-MB-435,13.6 µM (inactive)
same,GI50,A498,14.9 µM (inactive)
same,GI50,RXF 393,14.6 µM (inactive)
same,GI50,SK-OV-3,54.7 µM (inactive)
same,GI50,RPMI-8226,5.04 µM (inactive)
same,GI50,LOX IMVI,5.61 µM (inactive)
same,GI50,HCT-116,8.95 µM (inactive)
same,GI50,MDA-MB-231,15.5 µM (inactive)
same,GI50,U-251,7.26 µM (inactive)
same,GI50,NCI-H226,11.1 µM (inactive)
same,GI50,786-0,3.03 µM (inactive)
same,GI50,SF-295,40.2 µM (inactive)
O=C1Sc2cc3ccccc3cc2C(=O)Sc2cc3ccccc3cc21,GI50,SF-268,26 µM (inactive)
same,GI50,NCI-H23,43.3 µM (inactive)
same,GI50,OVCAR-5,36.1 µM (inactive)
same,GI50,ACHN,28.9 µM (inactive)
same,GI50,SW-620,30.3 µM (inactive)
same,GI50,EKVX,76.2 µM (inactive)
same,GI50,M14,27.8 µM (inactive)
same,GI50,T47D,23.3 µM (inactive)
same,GI50,HCT-15,22.8 µM
same,GI50,HCC 2998,21.3 µM (inactive)
same,GI50,TK-10,55.2 µM (inactive)
same,GI50,COLO 205,> 100 µM (inactive)
same,GI50,SN12C,23.2 µM (inactive)
same,GI50,A549,81.7 µM (inactive)
same,GI50,IGROV-1,32.3 µM (inactive)
same,GI50,OVCAR-4,23.2 µM (inactive)
same,GI50,UACC-257,27.8 µM (inactive)
same,GI50,SK-MEL-2,23 µM (inactive)
same,GI50,CAKI-1,32.2 µM (inactive)
same,GI50,HL-60,7.87 µM (inactive)
same,GI50,SK-MEL-28,28.6 µM (inactive)
same,GI50,HT-29,28 µM (inactive)
same,GI50,UACC-62,24.8 µM (inactive)
same,GI50,SK-MEL-5,50.8 µM (inactive)
same,GI50,NCI/ADR-RES,29.1 µM (inactive)
same,GI50,SR,0.454 µM (active)
same,GI50,OVCAR-3,21.1 µM (inactive)
same,GI50,NCI-H460,41.6 µM (inactive)
same,GI50,PC-3,33.9 µM (inactive)
same,GI50,K562,27 µM (inactive)
same,GI50,MCF7,32.4 µM (inactive)
same,GI50,MOLT-4,15.9 µM (inactive)
same,GI50,OVCAR-8,24.5 µM (inactive)
same,GI50,KM12,33 µM (inactive)
same,GI50,MDA-N,29 µM (inactive)
same,GI50,HOP-62,27.3 µM (inactive)
same,GI50,BT-549,32.3 µM (inactive)
same,GI50,CCRF-CEM,2.6 µM (inactive)
same,GI50,SNB-19,47.1 µM (inactive)
same,GI50,UO-31,19.5 µM (inactive)
same,GI50,Malme-3M,34.9 µM (inactive)
same,GI50,SF-539,31.9 µM (inactive)
same,GI50,Hs-578T,44.6 µM (inactive)
same,GI50,NCI-H522,7.45 µM (inactive)
same,GI50,SNB-75,38.8 µM (inactive)
same,GI50,DU-145,58.7 µM (inactive)
same,GI50,HOP-92,30.2 µM (inactive)
same,GI50,MDA-MB-435,30.8 µM (inactive)
same,GI50,A498,> 100 µM (inactive)
same,GI50,RXF 393,17.7 µM (inactive)
same,GI50,SK-OV-3,> 100 µM (inactive)
same,GI50,RPMI-8226,6.68 µM (inactive)
same,GI50,LOX IMVI,19 µM (inactive)
same,GI50,HCT-116,17.4 µM (inactive)
same,GI50,MDA-MB-231,> 54.6 µM (inactive)
same,GI50,U-251,29.6 µM (inactive)
same,GI50,NCI-H226,> 100 µM (inactive)
same,GI50,786-0,15.4 µM (inactive)
same,GI50,SF-295,> 87.3 µM (inactive)
